#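 Step 1: Grow cells in 96-well plates. Step 2: Expose to compound for 48 hours at 5 concentrations. Step 3: Interpolate endpoints linearly; if unreached, use highest concentration. GI50 marks 50% less growth.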 Activity calls are given as the source filed them. Cut-off read from the data, not from the text of the source: active = GI50 up to about 1.1 µM and inactive = higher.
# Tests used:
# Assay in all cases: NCI anticancer screen, dose series, 48 h
# SN12C = test system: SN12C
# SK-MEL-2 = test system: SK-MEL-2
# EKVX = test system: EKVX
# SK-MEL-28 = test system: SK-MEL-28
# HOP-92 = test system: HOP-92
# SNB-75 = test system: SNB-75
# LOX IMVI = test system: LOX IMVI
# UACC-257 = test system: UACC-257
# MDA-MB-435 = test system: MDA-MB-435
# NCI/ADR-RES = test system: NCI/ADR-RES
# ACHN = test system: ACHN
# MDA-N = test system: MDA-N
# OVCAR-8 = test system: OVCAR-8
# HCT-116 = test system: HCT-116
# NCI-H460 = test system: NCI-H460
# 786-0 = test system: 786-0
# HOP-62 = test system: HOP-62
# CAKI-1 = test system: CAKI-1
# A549 = test system: A549
# COLO 205 = test system: COLO 205
# CCRF-CEM = test system: CCRF-CEM
# UACC-62 = test system: UACC-62
# HT-29 = test system: HT-29
# OVCAR-4 = test system: OVCAR-4
# SK-OV-3 = test system: SK-OV-3
# HCT-15 = test system: HCT-15
# SF-295 = test system: SF-295
# NCI-H522 = test system: NCI-H522
# SK-MEL-5 = test system: SK-MEL-5
# PC-3 = test system: PC-3
# SW-620 = test system: SW-620
# Malme-3M = test system: Malme-3M
# MDA-MB-231 = test system: MDA-MB-231
# DU-145 = test system: DU-145
# UO-31 = test system: UO-31
# U-251 = test system: U-251
# IGROV-1 = test system: IGROV-1
# Hs-578T = test system: Hs-578T
# SF-268 = test system: SF-268
# MOLT-4 = test system: MOLT-4
# MCF7 = test system: MCF7
# A498 = test system: A498
# M14 = test system: M14
# BT-549 = test system: BT-549
# K562 = test system: K562
# SNB-19 = test system: SNB-19
# SR = test system: SR
# HL-60 = test system: HL-60
# OVCAR-3 = test system: OVCAR-3
# OVCAR-5 = test system: OVCAR-5
# HCC 2998 = test system: HCC 2998
# TK-10 = test system: TK-10
# KM12 = test system: KM12
# SF-539 = test system: SF-539
# NCI-H226 = test system: NCI-H226
# RPMI-8226 = test system: RPMI-8226
# T47D = test system: T47D
# NCI-H23 = test system: NCI-H23
compound,measurement,setting,value
Cc1ccc2c(c1)C(=O)/C(=N/Nc1ccc(Cl)cc1)CCO2,GI50,SN12C,> 100 µM (inactive)
same,GI50,SK-MEL-2,21.2 µM (inactive)
same,GI50,EKVX,> 100 µM (inactive)
same,GI50,SK-MEL-28,> 100 µM (inactive)
same,GI50,HOP-92,72.4 µM (inactive)
same,GI50,SNB-75,> 100 µM (inactive)
same,GI50,LOX IMVI,35.2 µM (inactive)
same,GI50,UACC-257,> 100 µM (inactive)
same,GI50,MDA-MB-435,71 µM (inactive)
same,GI50,NCI/ADR-RES,> 100 µM (inactive)
same,GI50,ACHN,> 100 µM (inactive)
same,GI50,MDA-N,65.3 µM (inactive)
same,GI50,OVCAR-8,> 100 µM (inactive)
same,GI50,HCT-116,50.7 µM (inactive)
same,GI50,NCI-H460,92.9 µM (inactive)
same,GI50,786-0,37.1 µM (inactive)
same,GI50,HOP-62,> 100 µM (inactive)
same,GI50,CAKI-1,> 100 µM (inactive)
same,GI50,A549,94.6 µM (inactive)
same,GI50,COLO 205,63.5 µM (inactive)
same,GI50,CCRF-CEM,46.7 µM (inactive)
same,GI50,UACC-62,50.1 µM (inactive)
same,GI50,HT-29,26.4 µM (inactive)
same,GI50,OVCAR-4,80.4 µM (inactive)
same,GI50,SK-OV-3,> 100 µM (inactive)
same,GI50,HCT-15,60 µM
same,GI50,SF-295,24.3 µM (inactive)
same,GI50,NCI-H522,56.1 µM (inactive)
same,GI50,SK-MEL-5,23.3 µM (inactive)
same,GI50,PC-3,54.5 µM (inactive)
same,GI50,SW-620,> 100 µM (inactive)
same,GI50,Malme-3M,46.7 µM (inactive)
same,GI50,MDA-MB-231,> 100 µM (inactive)
same,GI50,DU-145,> 100 µM (inactive)
same,GI50,UO-31,> 100 µM (inactive)
same,GI50,U-251,> 100 µM (inactive)
same,GI50,IGROV-1,> 100 µM (inactive)
same,GI50,Hs-578T,35.4 µM (inactive)
same,GI50,SF-268,> 100 µM (inactive)
same,GI50,MOLT-4,71.3 µM (inactive)
same,GI50,MCF7,58.7 µM (inactive)
same,GI50,A498,> 100 µM (inactive)
same,GI50,M14,44 µM (inactive)
same,GI50,BT-549,> 100 µM (inactive)
same,GI50,K562,28 µM (inactive)
same,GI50,SNB-19,> 100 µM (inactive)
same,GI50,SR,44.8 µM (inactive)
same,GI50,HL-60,38.9 µM (inactive)
same,GI50,OVCAR-3,> 100 µM (inactive)
same,GI50,OVCAR-5,69.7 µM (inactive)
same,GI50,HCC 2998,54.1 µM (inactive)
same,GI50,TK-10,> 100 µM (inactive)
same,GI50,KM12,75 µM (inactive)
same,GI50,SF-539,> 100 µM (inactive)
same,GI50,NCI-H226,> 100 µM (inactive)
same,GI50,RPMI-8226,36.3 µM (inactive)
same,GI50,T47D,13.3 µM (inactive)
same,GI50,NCI-H23,> 100 µM (inactive)

# Reference: ChEMBL document CHEMBL1201862, “PubChem BioAssay data set” (2004)
